Reference: patent US9763445B2, “Safened herbicidal compositions comprising a pyridine carboxylic acid herbicide” (Dow AgroSciences, LLC, priority 2014, dated 2017)
Where two headings read alike, the source gives them in different places.

Experiments:
spring wheat (TRZAS) = test: Postemergence greenhouse trial, % visual injury on spring wheat; format: in vivo, Triticum aestivum
Description: (§1) Seeds of the desired test plant species were planted in Sun Gro MetroMix® 306 planting mixture, which typically has a pH of 6.0 to 6.8 and an organic matter content of about 30 percent, in plastic pots with a surface area of 103.2 square centimeters (cm^2). When required to ensure good germination and healthy plants, a fungicide treatment and/or other chemical or physical treatment was applied. The plants were grown for 7-36 days (d) in a greenhouse with an approximate 14-hour (h) photoperiod which was maintained at about 23° C. during the day and 22° C. during the night. Nutrients and water were added on a regular basis and supplemental lighting was provided with overhead metal halide 1000-Watt lamps as necessary. The plants were employed for testing when they reached the second or third true leaf stage.
(§2) Weighed amounts of technical material were dissolved in a volume of 97:3 volume per volume (v/v) acetone/dimethyl sulfoxide (DMSO) to stock solutions. […] The concentrated stock solutions were diluted with an aqueous mixture of 1.5% v/v of Agri-dex crop oil concentrate to provide the appropriate application rates. Compound requirements are based upon a 12 milliliter (mL) application volume at a rate of 187 liters per hectare (L/ha). Stocks solutions of the safeners were prepared following the same procedure. Spray solutions of the safeners and experimental compound mixtures were prepared by adding the stock solutions to the appropriate amount of dilution solution to form a 12 mL spray solution in two-way combinations. Formulated compounds were applied to the plant material with an overhead Mandel track sprayer equipped with 8002E nozzles calibrated to deliver 187 L/ha over an application area of 0.503 square meters (m^2) at a spray height of 18 inches (43 centimeters (cm)) above average plant canopy. Control plants were sprayed in the same manner with the solvent blank. All herbicide application (component a) rates are in g ae/ha and all safener (component b) rates are in g ai/ha.
(§3) The treated plants and control plants were placed in a greenhouse as described above and watered by sub-irrigation to prevent wash-off of the test compounds. After 20-22 d, the condition of the test plants as compared with that of the control plants was determined visually and scored on a scale of 0 to 100 percent where 0 corresponds to no injury and 100 corresponds to complete kill. The condition of the test plants was compared with that of the control plants as determined visually and scored on a scale of 0 to 100 percent, where 0 corresponds to no injury and 100 corresponds to complete kill. Colby's equation was used to determine the herbicidal effects expected from the mixtures.
(§4) The safener cloquintocet-mexyl was combined with compound 1, compound 2, compound 4, compound 5, and compound 6, and applied to corn/maize (ZEAMX) and spring wheat (TRZAS) and the phytotoxicity of the herbicidal compositions was measured. In addition, the efficacy of the herbicidal composition on velvetleaf (ABUTH, Abutilon theophrasti), pigweed (AMARE, Amaranthus retroflexus), winter rape (BRSNW, Brassica napus), lambsquarters (CHEAL, Chenopodium album), thistle (CIRAR, Cirsium arvense), nutsedge (CYPES, Cyperus esculentus), poinsettia (EPHHL, Euphorbia heterophylla), wild buckwheat (POLCO, Polygonum convolvulus), giant foxtail (SETFA, Setaria faberi), and chickweed (STEME, Stellaria media) was evaluated.
(§5) The safener cloquintocet-mexyl was combined with compound 1, compound 2, compound 3, compound 7, compound 8, compound 9, compound 10, compound 11, compound 12, compound 13, compound 14, compound 15, compound 16, compound 17, compound 18, compound 19, and compound 20, and applied to spring wheat (TRZAS), winter wheat (TRZAW), and spring barley (HORVS) and the phytotoxicity of the herbicidal compositions was measured. […]

spring barley (HORVS) = test: Postemergence greenhouse trial, % visual injury on spring barley; format: in vivo, Hordeum vulgare
Description: as §1, §2, §3, §5

winter rape (BRSNW) = test: Postemergence greenhouse trial, % visual injury on winter rape; format: in vivo, Brassica napus; conditions: Brassica napus, post-emergence, BRSNW, read-out: % visual injury, Ob
Description: as §1, §2, §3
as §4, with “evaluated. […]” for “evaluated.”

kochia (KCHSC) = test: Postemergence greenhouse trial, % visual injury on kochia; format: in vivo, Kochia scoparia; conditions: Bassia scoparia, post-emergence, read-out: % visual injury, Ob; for pest or weed control at 4.375 g/ha / pest or weed control at 8.75 g/ha / pest or weed control at 17.5 g/ha / pest or weed control at 35 g/ha / pest or weed control at 70 g/ha: KCHSC
Description: as §1, §2
as §3, with “mixtures. […]” for “mixtures.”

common poppy (PAPRH) = test: Postemergence greenhouse trial, % visual injury on common poppy; format: in vivo, Papaver rhoeas; conditions: Papaver rhoeas, post-emergence, PAPRH, applied alone, read-out: % visual injury, Ob
Description: as §1, §2
as §3, with “mixtures. […]” for “mixtures.”

prickly lettuce (LACSE) = test: Postemergence greenhouse trial, % visual injury on prickly lettuce; format: in vivo, Lactuca serriola; conditions: LACSE, CQC-m 0
Description: as §1, §2
as §3, with “mixtures. […]” for “mixtures.”

wild mustard (SINAR) = test: Postemergence greenhouse trial, % visual injury on wild mustard; format: in vivo, Sinapis arvensis; conditions: Brassica, post-emergence, SINAR, CQC-m 0, read-out: % visual injury, Ob
Description: as §1, §2
as §3, with “mixtures. […]” for “mixtures.”

[1] = system: bird's-eye speedwell (VERPE); test: Postemergence greenhouse trial, % visual injury on bird's-eye speedwell; format: in vivo, Veronica persica; conditions: VERPE, CQC-m 0
Description: as §1, §2
as §3, with “mixtures. […]” for “mixtures.”

pigweed (AMARE) = test: Postemergence greenhouse trial, % visual injury on pigweed; format: in vivo, Amaranthus retroflexus; conditions: Amaranthus retroflexus, post-emergence, read-out: % visual injury, Ob
Description: as §1, §2, §3
as §4, with “evaluated. […]” for “evaluated.”
The safener cloquintocet-acid and a number of agriculturally acceptable esters and salts (-mexyl, -dimethylammonium salt and -triethylammonium salt) were combined in varying ratios with compound 1 and applied to spring wheat (TRZAS), winter wheat (TRZAW), and spring barley (HORVS), and the phytotoxicity of the herbicidal compositions was measured. […]

lambsquarters (CHEAL) = test: Postemergence greenhouse trial, % visual injury on lambsquarters; format: in vivo, Chenopodium album; conditions: Chenopodium album, post-emergence, read-out: % visual injury, Ob
Description: as §1, §2, §3, §4, §5

[2] = TRZAS, 4.375 g/ha, applied alone
[3] = TRZAS, 8.75 g/ha, applied alone
[4] = TRZAS, 17.5 g/ha, applied alone
[5] = HORVS, 4.375 g/ha, applied alone
[6] = HORVS, 8.75 g/ha, applied alone
[7] = HORVS, 17.5 g/ha, applied alone

COc1c(N)nc(-c2ccc3sccc3c2)nc1C(=O)O [compound 19]
% visual injury, Ob (spring wheat (TRZAS); [2]): 0% | % visual injury, Ob (spring wheat (TRZAS); [3]): 10% | % visual injury, Ob (spring wheat (TRZAS); [4]): 30% | % visual injury, Ob (spring wheat (TRZAS); TRZAS, 35 g/ha, applied alone): 40% | % visual injury, Ob (spring wheat (TRZAS); TRZAS, 70 g/ha, applied alone): 50% | % visual injury, Ob (spring barley (HORVS); [5]): 0% | % visual injury, Ob (spring barley (HORVS); [6]): 10% | % visual injury, Ob (spring barley (HORVS); [7]): 10% | % visual injury, Ob (spring barley (HORVS); HORVS, 35 g/ha, applied alone): 15% | % visual injury, Ob (spring barley (HORVS); HORVS, 70 g/ha, applied alone): 35% | plant injury at 4.375 g/ha (winter rape (BRSNW); 4.375 g/ha, applied alone): 0% | plant injury at 8.75 g/ha (winter rape (BRSNW); 8.75 g/ha, applied alone): 10% | plant injury at 17.5 g/ha (winter rape (BRSNW); 17.5 g/ha, applied alone): 20% | plant injury at 35 g/ha (winter rape (BRSNW); 35 g/ha, applied alone): 25% | plant injury at 70 g/ha (winter rape (BRSNW); 70 g/ha, applied alone): 30% | pest or weed control at 4.375 g/ha (kochia (KCHSC); applied alone): 0% | pest or weed control at 8.75 g/ha (kochia (KCHSC); applied alone): 0% | pest or weed control at 17.5 g/ha (kochia (KCHSC); 17.5 g/ha, applied alone): 0% | pest or weed control at 35 g/ha (kochia (KCHSC); 35 g/ha, applied alone): 10% | pest or weed control at 70 g/ha (kochia (KCHSC); 70 g/ha, applied alone): 60% | pest or weed control at 4.375 g/ha (common poppy (PAPRH)): 80% | pest or weed control at 8.75 g/ha (common poppy (PAPRH)): 80% | pest or weed control at 17.5 g/ha (common poppy (PAPRH)): 85% | pest or weed control at 35 g/ha (common poppy (PAPRH)): 90% | pest or weed control at 70 g/ha (common poppy (PAPRH)): 95%

COC(=O)c1nc(-c2ccc3cc[nH]c3c2F)c(F)c(/N=C/N(C)C)c1Cl [compound 11]
% visual injury, Ob (spring wheat (TRZAS); TRZAS, compound 17.5 g/ha, CQC-m 0): 10% | % visual injury, Ob (spring wheat (TRZAS); TRZAS, compound 35 g/ha, CQC-m 0): 20% | % visual injury, Ob (spring wheat (TRZAS); TRZAS, compound 70 g/ha, CQC-m 0): 40% | % visual injury, Ob (spring barley (HORVS); HORVS, compound 17.5 g/ha, CQC-m 0): 10% | % visual injury, Ob (spring barley (HORVS); HORVS, compound 35 g/ha, CQC-m 0): 20% | % visual injury, Ob (spring barley (HORVS); HORVS, compound 70 g/ha, CQC-m 0): 40% | plant injury at 17.5 g/ha (winter rape (BRSNW); compound 17.5 g/ha, CQC-m 0): 95% | plant injury at 35 g/ha (winter rape (BRSNW); compound 35 g/ha, CQC-m 0): 100% | plant injury at 70 g/ha (winter rape (BRSNW); compound 70 g/ha, CQC-m 0): 100% | pest or weed control at 17.5 g/ha (kochia (KCHSC); compound 17.5 g/ha, CQC-m 0): 70% | pest or weed control at 35 g/ha (kochia (KCHSC); compound 35 g/ha, CQC-m 0): 90% | pest or weed control at 70 g/ha (kochia (KCHSC); compound 70 g/ha, CQC-m 0): 90% | % visual injury, Ob (prickly lettuce (LACSE); compound 17.5 g/ha): 0% | % visual injury, Ob (prickly lettuce (LACSE); compound 35 g/ha): 10% | % visual injury, Ob (prickly lettuce (LACSE); compound 70 g/ha): 40% | pest or weed control at 17.5 g/ha (wild mustard (SINAR); compound 17.5 g/ha): 95% | pest or weed control at 35 g/ha (wild mustard (SINAR); compound 35 g/ha): 100% | pest or weed control at 70 g/ha (wild mustard (SINAR); compound 70 g/ha): 100% | % visual injury, Ob ([1]; compound 17.5 g/ha): 85% | % visual injury, Ob ([1]; compound 35 g/ha): 90% | % visual injury, Ob ([1]; compound 70 g/ha): 95%

COC(=O)c1nc(-c2ccc3sccc3c2)c(F)c(N)c1Cl [compound 18]
% visual injury, Ob (spring wheat (TRZAS); [2]): 10% | % visual injury, Ob (spring wheat (TRZAS); [3]): 25% | % visual injury, Ob (spring wheat (TRZAS); [4]): 40% | % visual injury, Ob (spring wheat (TRZAS); TRZAS, 35 g/ha, applied alone): 50% | % visual injury, Ob (spring wheat (TRZAS); TRZAS, 70 g/ha, applied alone): 70% | % visual injury, Ob (spring barley (HORVS); [5]): 15% | % visual injury, Ob (spring barley (HORVS); [6]): 25% | % visual injury, Ob (spring barley (HORVS); [7]): 40% | % visual injury, Ob (spring barley (HORVS); HORVS, 35 g/ha, applied alone): 50% | % visual injury, Ob (spring barley (HORVS); HORVS, 70 g/ha, applied alone): 70% | pest or weed control at 4.375 g/ha (kochia (KCHSC); applied alone): 30% | pest or weed control at 8.75 g/ha (kochia (KCHSC); applied alone): 40% | pest or weed control at 17.5 g/ha (kochia (KCHSC); 17.5 g/ha, applied alone): 75% | pest or weed control at 35 g/ha (kochia (KCHSC); 35 g/ha, applied alone): 93% | pest or weed control at 70 g/ha (kochia (KCHSC); 70 g/ha, applied alone): 90% | pest or weed control at 4.375 g/ha (common poppy (PAPRH)): 90% | pest or weed control at 8.75 g/ha (common poppy (PAPRH)): 90% | pest or weed control at 17.5 g/ha (common poppy (PAPRH)): 93% | pest or weed control at 35 g/ha (common poppy (PAPRH)): 93% | pest or weed control at 70 g/ha (common poppy (PAPRH)): 95%

Nc1c(F)c(-c2ccc3cc[nH]c3c2F)nc(C(=O)[O-])c1Cl.[K+] [compound 7]
% visual injury, Ob (spring wheat (TRZAS); alone, 20 g/ha): 10% | % visual injury, Ob (spring barley (HORVS); alone, 20 g/ha): 5% | pest or weed control at 20 g/ha (pigweed (AMARE)): 88% | pest or weed control at 20 g/ha (lambsquarters (CHEAL)): 90% | pest or weed control at 20 g/ha (kochia (KCHSC)): 65%
